Assay results from PubChem BioAssay (NCI).
Where “and” joins values, the source holds several entries; their conditions need not be identical. Identical values can stand only once.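 Step 1: Grow cells in 96-well plates. Step 2: Expose to compound for 48 hours at 5 concentrations. Step 3: Interpolate endpoints linearly; if unreached, use highest concentration. GI50 marks 50% less growth. TGI denotes the concentration required for complete inhibition of growth.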

What was measured:
Assay in all cases: inhibition of tumour cell growth, NCI panel, 48 h
[1] = tested on: HCT-116 colon
[2] = tested on: HOP-92 NSCLC
[3] = tested on: HS 578T breast
[4] = tested on: IGROV1 ovarian
[5] = tested on: K-562 leukemia
[6] = tested on: M14 melanoma
[7] = tested on: NCI-H226 lung
[8] = tested on: NCI-H23 lung
[9] = tested on: HCC-2998 colon
[10] = tested on: SK-OV-3 ovarian

SMILES	GI50 [1]	TGI [1]	GI50 [2] [µM]	TGI [2]	GI50 [3] [µM]	TGI [3] [µM]	GI50 [4]	TGI [4]	GI50 [5] [µM]	TGI [5] [µM]	GI50 [6]	TGI [6]	GI50 [7] [µM]	TGI [7] [µM]	GI50 [8] [µM]	TGI [8]	TGI [9] [µM]	TGI [10]	GI50 [9] [µM]	GI50 [10] [µM]
CC(=O)Oc1ccc2c(c1)[C@@]1(C)CCCC(C)(C)[C@@H]1CC2	18.4 µM	32.8 µM	21.7	41.9 µM	24.7	56.5	49.4 µM	> 100 µM	40	> 100	18.2 µM	33.7 µM	18.5	37.4	19.8	37.6 µM	–	–	–	–
Cc1coc2c1C(=O)C(=O)c1ccccc1-2	–	0.879 µM	–	1.28 µM	–	–	–	3.44 µM	–	1.44	–	2.63 µM	–	2.55	–	4.09 µM	3.35	3.25 µM	–	–
Cn1c(=O)nc2n(-c3ccc(Cl)cc3)c(-c3ccccc3)c(-c3ccccc3)nc-2c1=O	–	–	–	84.5 µM	–	–	–	> 100 µM	–	> 100	–	45.5 µM	–	58.8	–	> 100 µM	> 100	> 100 µM	–	–
COC(=O)c1cccc2c3ccccc3c3ccccc3c12	–	> 100 µM	–	–	–	–	–	> 100 µM	–	79.3	–	> 100 µM	–	> 100	–	54.7 µM	> 100	75.7 µM	–	–
C/C(=N\NC(N)=S)c1ccc(C)c(C)c1	–	> 100 µM	–	> 100 µM	–	–	–	> 100 µM	–	> 100	–	> 100 µM	–	> 100	–	> 100 µM	> 100	> 100 µM	–	–
CCCCCCCCOCC(O)CO (stereo not given)	–	> 100 µM	–	> 100 µM	–	–	–	> 100 µM	–	> 100	–	> 100 µM	–	> 100	–	> 100 µM	> 100	> 100 µM	–	–
NCCCOc1cc2ccccc2cc1C(=O)Nc1ccc(Cl)cc1OC(=O)c1cc2ccccc2cc1OCCCN	0.175 µM	0.313 µM	1.64	3.71 µM	–	–	–	–	–	–	0.321 µM	1.26 µM	–	–	0.387	1.2 µM	2.82	3.19 µM	1.43	1.57
Nc1nonc1-c1nc2ccccc2n1Cc1ccc(F)cc1	4.81 µM	> 100 µM	4.04	36.7 µM	3.18	> 100	5.25 µM	> 100 µM	4.37	> 100	4.64 µM	> 100 µM	> 100	> 100	87	> 100 µM	–	> 100 µM	–	16.8
O=C1C(=C2CCCC2)CCC1CN1CCCCC1 (stereo not given)	–	38.1 µM	–	37.7 µM	–	–	–	36.3 µM	–	47.1	–	29.6 µM	–	–	–	36.4 µM	29.8	–	–	–
N#Cc1c(-c2ccccc2)cc(-c2ccc(N)cc2)[nH]c1=O	–	> 100 µM	–	> 100 µM	–	–	–	> 100 µM	–	> 100	–	> 100 µM	–	> 100	–	> 100 µM	> 100	> 100 µM	–	–
CC(C)(C)OP(=O)(OC(C)(C)C)C(O)c1ccc(/C=C(\C#N)C(N)=O)cc1 (stereo not given)	–	> 100 µM	–	> 100 µM	–	–	–	> 100 µM	–	> 100	–	> 100 µM	–	> 100	–	> 100 µM	> 100	> 100 µM	–	–
COc1cc(Cl)cc(-c2nn(-c3cccc(NC(=O)Nc4cccc(C(F)(F)F)c4)c3)cc2-c2ccncc2)c1	0.754 µM	7.61 µM	–	–	4.06	> 100	2.86 µM	22.7 µM	0.824	14.4	1.34 µM	3.98 µM	2.26	11.5	1.76	6.69 µM	14	58.4 µM	3.47	3.61
COC(=O)CCC(=O)N1C/C(=C\c2ccccc2)C(=O)/C(=C/c2ccccc2)C1	–	1.42 µM	–	18.7 µM	–	–	–	3.94 µM	–	> 100	–	3.93 µM	–	13.5	–	4.35 µM	3.06	13.9 µM	–	–
N#CC1=C(N)NC(=S)NC1c1ccc(-c2ccc(-c3nc4ccccc4o3)cc2)s1 (stereo not given)	7.71 µM	14.4 µM	9.84	> 50 µM	16.1	45.1	2.21 µM	12.7 µM	4.7	15.5	12.6 µM	30.3 µM	–	–	12	27.4 µM	–	31 µM	–	11
Nc1ncnc2c1ncn2C1OC(COS(N)(=O)=O)C(O)C1O (stereo not given)	0.00252 µM and 0.0248 µM	0.0156 µM and 0.0656 µM	–	0.00619 µM and 0.0611 µM	–	–	0.00291 µM and 0.0248 µM	0.00781 µM and 0.065 µM	–	–	0.00214 µM and 0.0181 µM	0.00494 µM and 0.036 µM	0.00203	0.00398	–	0.00558 µM and 0.0546 µM	–	0.00784 µM and 0.0758 µM	–	–
CCC/C=C\C=C\C1(NS(=O)(=O)c2ccc(C)cc2)CCC(C(C)(C)C)CC1 (stereo not given)	–	38.3 µM	–	50.9 µM	–	–	–	87.3 µM	–	34.2	–	37.1 µM	–	38	–	55 µM	34.3	65.2 µM	–	–
CC1=CC(C)(c2c[nH]c3ccccc23)CC(C)(C)c2c1[nH]c1ccccc21 (stereo not given)	–	26.7 µM	–	–	–	–	–	36 µM	–	53.9	–	46.9 µM	–	37.1	–	28.5 µM	30.4	61.8 µM	–	–
CCC1C(C)C=NN1c1nc(N)nc(C(C#N)=Nc2ccc(N(C)C)cc2)n1 (stereo not given)	16.5 µM	> 50 µM	12.1	> 50 µM	–	–	30.9 µM	> 50 µM	2.73	> 50	9.11 µM	16.5 µM	10.8	28.8	13.8	> 50 µM	19.6	17.8 µM	9.93	9.32
CN(C)CCC(/C=C/c1ccccc1)=N\Nc1ccc(Cl)c(Cl)c1	–	11.2 µM	–	4.4 µM	–	–	–	10.1 µM	–	6.03	–	7.22 µM	–	–	–	8.93 µM	–	15.5 µM	–	–
